Entries after “also recorded” stand apart in the source; their conditions may differ.
How the values were obtained:
Format in all cases: in vivo, C57BL6/J male mice
[1] = DEXA scan of high fat diet mice (body fat %, fat mass, lean mass); conditions: HFD mice; after 10 weeks of treatment
From the text: (§1) 5 week old C57BL6/J male mice were divided into 2 groups as follows: normal diet (ND) (10% kcal/fat) or high fat diet (HFD) (60% kcal/fat) each containing the same total calories. At 12 weeks of age, the HFD group was further divided into 4 groups as follows: HFD alone, HFD supplemented with alpha-lipoic acid (HFD+ALA), HFD supplemented with curcumin (HFD+CUR), or HFD supplemented with alpha-lipoic acid plus curcumin (HFD+ALA+CUR). Based on the average food intake, the daily dose for alpha-lipoic acid in the HFD+ALA group was about 174 mg/kg, the daily dose for curcumin in the HFD+CUR group was about 65 mg/kg, and the daily dose for each component in the HFD+ALA+CUR group was similar to that in the respective groups. Each of the 5 groups contained 8-10 mice. Body weight of the mice was recorded weekly and food intake was monitored every two days. After 10 weeks of treatment mice from each group were subjected to dual-energy X-ray absorptiometry (DEXA) scan; percent (%) body fat, fat mass, and lean mass were calculated.

[2] = Body weight of high fat diet mice during treatment; conditions: HFD mice, ALA about 174 mg/kg daily, curcumin about 65 mg/kg daily; for body weight during the course of the experiment (FIG. 1): supplement in diet, recorded weekly
From the text: as §1

[3] = Food intake of high fat diet mice; conditions: HFD mice; monitored every two days; compared to HFD mice
From the text: as §1

Row | SMILES | DEXA body fat % (FIG. 6) [1] | DEXA fat mass (FIG. 7) [1] | DEXA lean mass (FIG. 8) [1] | body weight / weight gain after 11 weeks of treatment (FIG. 3) [2] | body weight during the course of the experiment (FIG. 1) [2] | food intake (grams) per day per gram body weight (FIG. 4) [3] | food intake (kcals) per day per gram body weight (FIG. 5) [3]
1 | O=C(O)CCCCC1CCSS1 (racemic) [alpha-lipoic acid, 6,8-dithio octanoic acid] | failed to reduce body fat % | attenuated increase in fat mass compared to the HFD group | significant attenuation in lean mass accrual | attenuated weight gain; also recorded: efficacy at attenuating weight gain | weight gain less than the HFD mice | reduced food intake | reduced calorie intake
2 | COc1cc(/C=C/C(=O)CC(=O)/C=C/c2ccc(O)c(OC)c2)ccc1O [curcumin] | reduced the increased body fat % from a high fat diet | – | unaltered | attenuated weight gain; also recorded: efficacy at attenuating weight gain | weight gain less than the HFD mice | – | –

Reference: patent publication US9770434B2, “Compositions for improved body composition” (Northern Innovations Holding Corp, priority 2014, dated 2017)
